Assays:
[1] = Plasma clearance in Beagle dog at 0.25 mg/kg, iv or 0.5 mg/kg, po; type: ADME, organism-based, Canis lupus familiaris
[2] = Oral bioavailability in Beagle dog; type: ADME, organism-based, Canis lupus familiaris; conditions: in vivo
[3] = target: T1, Phosphatidylinositol 4,5-bisphosphate 3-kinase catalytic subunit delta isoform (Homo sapiens, UniProt O00329); test: Inhibition of PI3Kdelta in human whole blood assessed as reduction in anti-CD79b antibody-induced CD69 expression preincubated for 60 mins followed by anti-CD79b antibody stimulation and measured after 3 hrs by FACS analysis; type: tissue-based
T1 sequence (O00329 whole entry): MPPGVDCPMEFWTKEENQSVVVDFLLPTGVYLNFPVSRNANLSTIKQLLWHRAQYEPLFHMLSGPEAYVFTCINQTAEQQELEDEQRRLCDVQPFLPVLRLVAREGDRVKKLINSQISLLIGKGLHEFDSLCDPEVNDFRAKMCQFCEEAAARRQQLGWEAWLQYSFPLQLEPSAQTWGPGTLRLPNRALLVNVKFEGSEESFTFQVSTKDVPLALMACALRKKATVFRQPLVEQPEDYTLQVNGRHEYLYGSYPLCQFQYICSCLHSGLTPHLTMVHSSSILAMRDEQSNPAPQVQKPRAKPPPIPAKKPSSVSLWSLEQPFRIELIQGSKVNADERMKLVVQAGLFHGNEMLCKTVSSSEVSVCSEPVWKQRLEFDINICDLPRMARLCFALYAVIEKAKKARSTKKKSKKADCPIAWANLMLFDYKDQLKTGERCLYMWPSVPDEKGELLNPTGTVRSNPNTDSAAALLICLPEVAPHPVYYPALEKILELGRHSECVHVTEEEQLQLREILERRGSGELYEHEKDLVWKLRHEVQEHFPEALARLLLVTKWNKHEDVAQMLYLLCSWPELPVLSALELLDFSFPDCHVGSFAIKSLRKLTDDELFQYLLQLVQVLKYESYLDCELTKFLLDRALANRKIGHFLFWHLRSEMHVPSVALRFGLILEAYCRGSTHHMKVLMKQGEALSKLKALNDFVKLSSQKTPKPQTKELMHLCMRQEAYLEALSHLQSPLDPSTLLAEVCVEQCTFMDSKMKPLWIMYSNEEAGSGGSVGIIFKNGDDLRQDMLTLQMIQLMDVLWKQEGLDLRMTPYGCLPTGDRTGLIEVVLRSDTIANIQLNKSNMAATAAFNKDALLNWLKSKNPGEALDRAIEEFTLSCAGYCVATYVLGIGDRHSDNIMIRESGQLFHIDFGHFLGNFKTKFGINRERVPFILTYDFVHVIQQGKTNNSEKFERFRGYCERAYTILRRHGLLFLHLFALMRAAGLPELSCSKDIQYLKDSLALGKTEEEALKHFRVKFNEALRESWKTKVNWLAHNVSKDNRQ

[4] = Inhibition of adenosine transporter in human HeLa cells assessed as reduction in [3H]adenosine uptake preincubated for 30 mins followed by [3H]adenosine addition and measured after 60 mins; type: cell-based
[5] = Half-life in Beagle dog; type: ADME, Canis lupus familiaris; conditions: in vivo
[6] = Volume of distribution in Wistar Han rat; type: ADME; conditions: in vivo
[7] = target: PI3-kinase p110-delta/p85-alpha (Homo sapiens, UniProt O00329); test: Inhibition of N-terminal His6-tagged recombinant full length human p110delta/untagged recombinant full length human p85alpha expressed in baculovirus infected Sf21 insect cells using PIP2 as substrate preincubated for 15 mins followed by substrate addition and measured after 1 hr by HTRF assay
PI3-kinase p110-delta/p85-alpha, sequence (P27986 whole entry, one chain of several): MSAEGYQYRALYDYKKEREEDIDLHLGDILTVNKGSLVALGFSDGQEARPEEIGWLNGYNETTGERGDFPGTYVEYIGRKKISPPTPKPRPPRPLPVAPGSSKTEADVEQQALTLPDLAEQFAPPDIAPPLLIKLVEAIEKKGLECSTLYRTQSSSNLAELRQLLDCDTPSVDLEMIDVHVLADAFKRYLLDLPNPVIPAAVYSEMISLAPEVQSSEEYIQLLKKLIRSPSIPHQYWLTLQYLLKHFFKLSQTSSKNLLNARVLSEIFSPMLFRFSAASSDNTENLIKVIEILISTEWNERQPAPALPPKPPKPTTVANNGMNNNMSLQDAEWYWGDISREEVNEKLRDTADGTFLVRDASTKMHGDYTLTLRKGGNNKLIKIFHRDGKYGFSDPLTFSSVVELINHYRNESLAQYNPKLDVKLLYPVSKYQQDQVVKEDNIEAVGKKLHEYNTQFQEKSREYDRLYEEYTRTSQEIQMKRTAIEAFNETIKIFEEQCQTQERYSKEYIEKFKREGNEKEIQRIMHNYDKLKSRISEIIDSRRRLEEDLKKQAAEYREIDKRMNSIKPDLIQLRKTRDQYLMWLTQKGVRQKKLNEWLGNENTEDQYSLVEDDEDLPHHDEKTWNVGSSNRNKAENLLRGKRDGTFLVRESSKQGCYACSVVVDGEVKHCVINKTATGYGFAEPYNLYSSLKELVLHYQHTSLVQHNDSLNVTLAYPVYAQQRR

[8] = Intrinsic clearance in Beagle dog at 0.25 mg/kg, iv or 0.5 mg/kg, po; type: ADME, organism-based, Canis lupus familiaris; conditions: in vivo
[9] = target: T1, Phosphatidylinositol 4,5-bisphosphate 3-kinase catalytic subunit delta isoform; test: Inhibition of PI3Kdelta in human Ramos cells assessed as reduction in anti-IgM-antibody-induced phosphorylation of AKT at Ser473 residue preincubated for 20 mins followed by anti-IgM antibody stimulation and measured after 30 mins by alphascreen assay; type: cell-based
[10] = Plasma clearance in Wistar Han rat at 0.5 mg/kg, iv or 1 mg/kg, po; type: ADME, organism-based
[11] = Intrinsic clearance in Wistar Han rat at 0.5 mg/kg, iv or 1 mg/kg, po; type: ADME, organism-based; conditions: in vivo
[12] = Volume of distribution in Beagle dog; type: ADME, Canis lupus familiaris; conditions: in vivo
[13] = Lipophilicity, log D of the compound by HPLC analysis; type: physicochemical
[14] = Unbound volume of distribution in Beagle dog; type: ADME, Canis lupus familiaris; conditions: in vivo
[15] = Unbound volume of distribution in Wistar Han rat; type: ADME; conditions: in vivo
[16] = Half-life in Wistar Han rat; type: ADME; conditions: in vivo
[17] = Oral bioavailability in Wistar Han rat; type: ADME, organism-based; conditions: in vivo
[18] = Apparent permeability in pig LLC-PK1 cells; type: ADME, cell-based, Sus scrofa

Structure (SMILES)	clearance [1]	bioavailability [2]	IC50 [3]	IC50 [4]	half-life [5]	Vd [6]	IC50 [7]	CL [8]	IC50 [9]	clearance [10]	CL [11]	Vd [12]	logD [13]	Vdu [14]	Vdu [15]	half-life [16]	bioavailability [17]	Papp [18]
CCn1c(-c2ccc(C(F)(F)F)nc2)nc2c(O[C@H]3CCN(C(=O)N4CC(OC)C4)C3)ncnc21	12 mL/min/kg	100%	68 nM	2200 nM	0.7 h	0.2 L/kg	1.3 nM	46 mL/min/kg	43 nM	1.7 mL/min/kg	29 mL/min/kg	0.7 L/kg	2.1	1.7 L/kg	4.2 L/kg	2 h	52%	33 ×10⁻⁶ cm/s
CCn1c(-c2cnc(C)nc2)nc2c(O[C@H]3CCN(C(=O)[C@H]4C[C@@H](OC)C4)C3)ncnc21	2.1 mL/min/kg	80%	75 nM	> 10000 nM	3.6 h	0.5 L/kg	2.8 nM	3.3 mL/min/kg	110 nM	3.8 mL/min/kg	19 mL/min/kg	0.6 L/kg	1	0.9 L/kg	2.5 L/kg	1.8 h	37%	18 ×10⁻⁶ cm/s
CCC(=O)N1CC[C@H](Nc2ncnc3c2nc(-c2cnn(CC)c2C)n3CC)C1	–	–	–	2300 nM	–	–	0.2 nM	–	2 nM	–	–	–	–	–	–	–	–	–
CCC(=O)N1CC[C@H](Nc2ncnc3c2nc(-c2ccc(OC)nc2)n3C)C1	–	–	–	1900 nM	–	–	–	–	67 nM	–	–	–	–	–	–	–	–	–
CCn1c(-c2cnc(C)nc2)nc2c(N[C@H]3CCN(C(=O)N4CC(OC)C4)C3)ncnc21	9 mL/min/kg	69%	9 nM	4700 nM	1.7 h	0.7 L/kg	0.7 nM	19 mL/min/kg	67 nM	11 mL/min/kg	93 mL/min/kg	1.4 L/kg	0.7	1.9 L/kg	4.8 L/kg	4 h	16%	10 ×10⁻⁶ cm/s
CCCn1c(-c2cnc(C)nc2)nc2c(N[C@H]3CCN(C(=O)CC)C3)ncnc21	–	–	–	–	–	–	135 nM	–	455 nM	–	–	–	–	–	–	–	–	–
CCC(=O)N1CC[C@H](Nc2ncnc3c2nc(-c2cnn(CC)c2C)n3C)C1	–	–	–	7300 nM	–	–	–	–	–	–	–	–	–	–	–	–	–	–
CCC(=O)N1CC[C@H](Nc2ncnc3c2nc(-c2ccc(C)nc2)n3C)C1	–	–	–	3800 nM	–	–	5 nM	–	160 nM	–	–	–	–	–	–	–	–	–
CCC(=O)N1CC[C@H](Nc2ncnc3c2nc(-c2cnc(C)nc2)n3C)C1	–	–	–	2000 nM	–	–	4.2 nM	–	71 nM	–	–	–	–	–	–	–	–	–
CCC(=O)N1CC[C@H](Nc2ncnc3c2nc(-c2cnc(C(C)(C)C)s2)n3C)C1	–	–	–	1600 nM	–	–	0.7 nM	–	4 nM	–	–	–	–	–	–	–	–	–
CCC(=O)N1CC[C@H](Nc2ncnc3c2nc(-c2cnn(CC)c2C)n3C2CC2)C1	–	–	–	–	–	–	39 nM	–	720 nM	–	–	–	–	–	–	–	–	–

The remaining compounds from weak to strong by IC50 [9], led by results:

clearance [1]	bioavailability [2]	IC50 [3]	IC50 [4]	half-life [5]	Vd [6]	IC50 [7]	CL [8]	IC50 [9]	clearance [10]	CL [11]	Vd [12]	logD [13]	Vdu [14]	Vdu [15]	half-life [16]	bioavailability [17]	Papp [18]	Structure (SMILES)
–	–	–	–	–	–	–	–	1350 nM	–	–	–	–	–	–	–	–	–	CCC(=O)N1CC[C@H](Nc2ncnc3c2nc(-c2cnn(CC)c2C)n3CC2CC2)C1
–	–	–	5400 nM	–	–	7.6 nM	–	875 nM	–	–	–	–	–	–	–	–	–	CCC(=O)N1CC[C@H](Nc2ncnc3[nH]c(-c4cnn(CC)c4C)nc23)C1
–	–	–	9300 nM	–	–	5.9 nM	–	330 nM	–	–	–	–	–	–	–	–	–	CCC(=O)N1CC[C@H](Nc2ncnc3c2nc(-c2cnn(CC)c2C)n3CC(F)(F)F)C1
5.6 mL/min/kg	100%	380 nM	4400 nM	2.5 h	0.3 L/kg	7.5 nM	19 mL/min/kg	300 nM	1.3 mL/min/kg	13 mL/min/kg	1.2 L/kg	2	3.4 L/kg	2.6 L/kg	6 h	100%	29 ×10⁻⁶ cm/s	CCn1c(-c2ccc(C(F)(F)F)nc2)nc2c(O[C@H]3CCN(C(=O)c4cocn4)C3)ncnc21
–	–	–	3700 nM	–	–	21 nM	–	198 nM	–	–	–	–	–	–	–	–	–	CCCn1c(-c2cnn(CC)c2C)nc2c(N[C@H]3CCN(C(=O)CC)C3)ncnc21
–	–	–	–	–	–	26 nM	–	125 nM	–	–	–	–	–	–	–	–	–	CCC(=O)N1CC[C@H](Nc2ncnc3c2nc(-c2ccn(CC)c2C)n3C)C1
9.3 mL/min/kg	100%	600 nM	> 10000 nM	1.8 h	0.5 L/kg	6.4 nM	16 mL/min/kg	94 nM	3.7 mL/min/kg	25 mL/min/kg	1.7 L/kg	0.7	1.9 L/kg	3.2 L/kg	1.7 h	50%	–	CCn1c(-c2cnc(C)nc2)nc2c(O[C@H]3CCN(C(=O)c4cocn4)C3)ncnc21
4.9 mL/min/kg	100%	270 nM	5300 nM	1.3 h	0.7 L/kg	5.9 nM	7 mL/min/kg	80 nM	9.7 mL/min/kg	44 mL/min/kg	0.6 L/kg	1	0.7 L/kg	2.8 L/kg	1.8 h	64%	28 ×10⁻⁶ cm/s	CCn1c(-c2cnc(C)nc2)nc2c(O[C@H]3CCN(C(=O)C4CC4)C3)ncnc21
6.2 mL/min/kg	100%	73 nM	4100 nM	2.6 h	0.4 L/kg	1.6 nM	18 mL/min/kg	67 nM	3.6 mL/min/kg	130 mL/min/kg	1.1 L/kg	2.2	2.5 L/kg	13 L/kg	3.3 h	39%	35 ×10⁻⁶ cm/s	CCn1c(-c2ccc(C(F)(F)F)nc2)nc2c(O[C@H]3CCN(C(=O)[C@H]4C[C@@H](OC)C4)C3)ncnc21
–	–	–	700 nM	–	–	9.9 nM	–	66 nM	–	–	–	–	–	–	–	–	–	CCC(=O)N1CC[C@H](Nc2ncnc3c2nc(-c2ccc(C(F)(F)F)nc2)n3C)C1
7.1 mL/min/kg	85%	26 nM	6100 nM	4.3 h	1.5 L/kg	0.8 nM	13 mL/min/kg	34 nM	6.9 mL/min/kg	81 mL/min/kg	1.5 L/kg	0.9	2 L/kg	4.1 L/kg	2.3 h	52%	10 ×10⁻⁶ cm/s	CCn1c(-c2cnc(C)nc2)nc2c(N[C@H]3CCN(C(=O)[C@H]4C[C@@H](OC)C4)C3)ncnc21
–	–	–	8900 nM	–	0.7 L/kg	2.1 nM	–	33 nM	24 mL/min/kg	220 mL/min/kg	–	0.7	–	4.3 L/kg	1.4 h	18%	–	CCn1c(-c2cnc(C)nc2)nc2c(N[C@H]3CCN(C(=O)C4CCOCC4)C3)ncnc21
–	–	–	1300 nM	–	–	2.6 nM	–	20 nM	–	–	–	–	–	–	–	–	–	CCC(=O)N1CC[C@H](Nc2ncnc3c2nc(-c2cnc(OC)c(F)c2)n3C)C1
–	–	–	3100 nM	–	–	1.3 nM	–	14 nM	–	–	–	–	–	–	–	–	–	CCC(=O)N1CC[C@H](Nc2ncnc3c2nc(-c2cnn(CC)c2C)n3CC(F)F)C1
–	–	–	300 nM	–	–	–	–	6 nM	–	–	–	–	–	–	–	–	–	CCC(=O)N1CC[C@H](Nc2ncnc3c2nc(-c2cnc(OC)c(C)c2)n3C)C1

From ChEMBL document CHEMBL4834420, “Projected Dose Optimization of Amino- and Hydroxypyrrolidine Purine PI3Kδ Immunomodulators” (J Med Chem, 2021)
